Structures are written as SMILES. Converted amounts (≈) assume the structure as drawn. The source made the active and inactive calls. No cut-off for these calls is given here.

For one test, the system named is Plasmodium falciparum. Nature of the test: Antimalarial activity against multidrug-resistant Plasmodium falciparum K1 after 24 hrs by [3H]hypoxanthine uptake. The class given is functional, organism-based.
The IC50 is the point on the concentration scale where inhibition reaches its midpoint. Low readings indicate greater potency in that assay, high ones weaker potency in that assay. The compound `Nc1ncnc2c1ncn2[C@@H]1O[C@H](CO)C[C@H]1O` [CORDYCEPIN] gave an IC50 of 4.5 µg/mL (≈ 17.9 µM).
In turn, `C[C@H]1[C@@H](O)O[C@@H]2O[C@@]3(C)CC[C@H]4[C@H](C)CC[C@@H]1[C@@]24OO3` [ARTENIMOL] showed an IC50 of 0.0012 µg/mL (≈ 0.00422 µM).

The test system of another test is Plasmodium falciparum. Briefly: Antimalarial activity against multidrug-resistant Plasmodium falciparum K1 at <20 ug/mL after 24 hrs by [3H]hypoxanthine uptake. The class given is functional, organism-based.
In the case of `C[C@@H]1CCC(=O)C[C@H](O)[C@@H](O)CC(=O)O1`, the outcome was inactive.
In the case of `CO[C@H]1CC(=O)CC[C@@H](C)OC(=O)C[C@@H]1O`, the result was inactive.
`C[C@@H]1CC[C@@H](O)/C=C/[C@@H](O)CC(=O)O1`: the outcome was inactive.
Turning to `CO[C@@H]1CC(=O)CC[C@@H](C)OC(=O)C[C@@H]1O`, the result was inactive.

The values are drawn from ChEMBL document CHEMBL1148961, “10-membered macrolides from the insect pathogenic fungus Cordyceps militaris BCC 2816” (J Nat Prod, 2004).
